Experimental data: patent publication US20200207734A1, “HETEROCYCLIC COMPOUND AND USE THEREOF” (Takeda Pharmaceutical Company Limited, priority 2017, published 2020)

Legend:
cynomolgus monkeys = test: Evaluation of wake-promoting effects in cynomolgus monkeys (EEG/EMG/EOG); assay type: in vivo; details: for Wakefulness time (% of vehicle treatment): 10 mg/kg, p.o., at ZT12, 4 h after administration, male cynomolgus monkeys, Mean, n = 4-8, cross-over design
Procedure: The wake-promoting effects were evaluated by measuring the electroencephalogram (EEG), electromyogram (EMG) and electrooculogram (EOG) in cynomolgus monkeys. Under isoflurane anesthesia (1-5%, Pfizer Japan Inc., Tokyo, Japan), male cynomolgus monkeys (3-5 years old, Hamri Co., Ltd., Ibaraki, Japan) were surgically implanted with radio-telemetry transmitters (TL10M3-D70-EEE, Data Sciences International Inc., MN, USA). EEG leads were stereotaxically positioned at the parietal area and secured to the cranium with stainless-steel screws in contact with the dura. […] Bilateral EMG leads were implanted into the back cervical muscles. After the surgery, each monkey was given penicillin (100,000 units/head, i.m., Meiji Seika Pharma Co., Ltd., Tokyo, Japan), buprenorphine (0.02 mg/kg, i.m., Otsuka Pharmaceutical Co., Ltd., Tokyo, Japan) and prednisolone (1 mg/kg, s.c., Kyoritsu Seiyaku Co., Ltd., Tokyo, Japan) daily for one week. After at least a 1-month recovery period in home cages, the monkeys were habituated to the recording chamber (an acrylic cage 60W×55D×75H (cm)) located in a soundproof, electrically shielded room. After we confirmed that monkeys slept sufficiently in the experimental room, cortical EEG, EMG and EOG signals were recorded using Dataquest ART software (Data Sciences International Inc., MN, USA). The signals were semi automatically scored in 20 sec epochs by a sleep scoring system (SleepSign, Kissei Comtec Co., Ltd., Nagano, Japan). This preliminary scoring was visually inspected and corrected if necessary. Test compound (10 mg/kg, Table 4-1) suspended in 0.5% methylcellulose aqueous solution, or vehicle (i.e., 0.5% methylcellulose aqueous solution) was administered orally (p.o.) to monkeys at zeitgeber time 12 (ZT12) in a volume of 5 mL/kg body weight in a cross-over design. EEG, EMG and EOG recordings were performed for 4 h after the compound administration/treatments. The time spent in wakefulness for 4 h after administration (% of vehicle treatment) was calculated by using SleepSign. Test compound (1 mg/kg, Table 4-2) dissolved in a mixed solution comprising 5% DMSO, 5% Cremophor EL, 20% PEG400 and 70% soluplus (1% (w/v)), or vehicle (i.e., a mixed solution comprising 5% DMSO, 5% Cremophor EL, 20% PEG400 and 70% soluplus (1% (w/v))) was administered subcutaneously (s.c.) to monkeys at ZT12 in a volume of 0.5 mL/kg body weight in a pre-post design. EEG, EMG and EOG recordings were performed for 4 h after the compound administration/treatments. The time spent in wakefulness for 4 h after administration (% of vehicle treatment) was calculated by using SleepSign.

[1] = molecular target: T1, human orexin type 2 receptor (Homo sapiens, UniProt O43614); test: Measurement of orexin type 2 receptor agonist activity (calcium fluorescence, CHO cells expressing hOX2R); assay type: cell-based; details: test compound 3 μM; CHO cells expressing human OX2 receptor; DMSO = 0%, orexin A (human) = 100%
T1 construct: human orexin type 2 receptor cDNA was inserted into pcDNA3.1(+) plasmid vector (Invitrogen); expressed in transfected cells
T1 sequence (O43614 1-444): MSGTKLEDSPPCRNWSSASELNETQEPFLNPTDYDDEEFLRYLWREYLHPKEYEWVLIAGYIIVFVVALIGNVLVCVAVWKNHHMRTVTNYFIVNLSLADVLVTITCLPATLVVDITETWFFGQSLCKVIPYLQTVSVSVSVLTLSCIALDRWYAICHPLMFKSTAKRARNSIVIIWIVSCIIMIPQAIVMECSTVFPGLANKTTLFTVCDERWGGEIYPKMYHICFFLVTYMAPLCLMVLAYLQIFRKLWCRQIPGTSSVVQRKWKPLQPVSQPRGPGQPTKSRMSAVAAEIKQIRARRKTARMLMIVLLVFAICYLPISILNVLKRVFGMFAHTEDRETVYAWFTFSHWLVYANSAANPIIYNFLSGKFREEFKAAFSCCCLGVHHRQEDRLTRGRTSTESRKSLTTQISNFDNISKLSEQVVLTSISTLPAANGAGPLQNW
Summary of the method: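 CHO-dhfr cells stably expressing hOX2R, loaded with Fluo-4 AM in HBSS/20 mM HEPES/0.1% BSA with probenecid, then given test compound. Calcium fluorescence was read for about 2 min 40 sec. Activity (%) was scaled between DMSO (0%) and 10 nM final human orexin A (100%).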

[2] = Evaluation of microsome stability in human; assay type: in vitro ADME; details: human liver microsomes 0.2 mg/mL, 1 μmol/L test compound, pH 7.4, NADPH-generating system, 15 and 30 min; read-out: Clearance (in vitro intrinsic metabolic clearance)
Procedure: Human liver microsomes were purchased from Xenotech, LLC (Lenexa, Kans.). An incubation mixture consisted of microsomes in 50 mmol/L KH2PO4—K2HPO4 phosphate buffer (pH 7.4) and 1 μmol/L test compound. The concentration of microsomal protein was 0.2 mg/mL. An NADPH-generating system (5 mmol/L MgCl2, 5 mmol/L glucose-6-phosphate, 0.5 mmol/L beta-NADP+ and 1.5 unit/mL glucose-6-phosphate dehydrogenase) was added to the incubation mixture with a half volume of the reaction mixture to initiate the enzyme reaction. The reaction was terminated 15 and 30 minutes after the initiation of the reaction by mixing the reaction mixture with acetonitrile, followed by centrifugation at 2500 rpm for 10 min. The supernatant was subjected to LC/MS/MS analysis. The metabolic velocity was calculated as the slope of the concentration-time plot. The in vitro intrinsic metabolic clearance was calculated by dividing initial metabolic velocity by the test compound concentration in the incubation mixture.

OX2R agonist activity (3 μM, %) [1] [%] | microsomal CLint at 1 μmol/L [2] [µL/min/mg] | SMILES | Wakefulness time (% of vehicle treatment) (cynomolgus monkeys) | response vs control in vivo at 1 mg/kg (cynomolgus monkeys; Macaca fascicularis, sc, 4 h, 1 mg/kg, s.c., cynomolgus monkeys, administered at ZT12, read-out: Wakefulness time (% of vehicle treatment) (Mean, n = 1-2)) [%]
112 | 23 | CCS(=O)(=O)N[C@H]1CCN(C(=O)C(C)(C)O)[C@H]1Cc1cccc(-c2cc(F)cc(F)c2)c1F [Example 484, N-((2S,3S)-1-(2-hydroxy-2-methyl-propanoyl)-2-((2,3′,5′-trifluorobi-phenyl-3-yl)methyl)pyrrolidin-3-yl)ethanesulfonamide] | 492.32 % of vehicle treatment | 
107 | 78 | CC(C)(O)C(=O)N1CC[C@H](NS(=O)(=O)C2(F)CC2)[C@@H]1Cc1cccc(-c2cccc(F)c2)c1F [Example 450, N-[(2S,3S)-2-[(2,3′-difluoro[1,1′-biphenyl]-3-yl)methyl]-1-(2-hydroxy-2-methylpropanoyl)pyrrolidin-3-yl]-1-fluorocyclopropane-1-sulfonamide] |  | 243
103 | 6 | CC(C)(O)C(=O)N1CC[C@H](NS(C)(=O)=O)[C@@H]1Cc1cccc(-c2cc(F)cc(F)c2)c1F [Example 483, N-((2S,3S)-1-(2-hydroxy-2-methyl-propanoyl)-2-((2,3′,5′-trifluorobi-phenyl-3-yl)methyl)pyrrolidin-3-yl)methanesulfonamide] | 359.35 % of vehicle treatment | 
110 | 26 | CCS(=O)(=O)N[C@H]1CCN(C(=O)C(C)(C)O)[C@H]1Cc1cccc(-c2cccc(F)c2)c1F [Example 482, N-((2S,3S)-2-((2,3′-difluorobi-phenyl-3-yl)methyl)-1-(2-hydroxy-2-methylpropanoyl)pyrrolidin-3-yl)ethanesulfonamide] | 280.82 % of vehicle treatment | 
